Measured values taken from article PMC10287566, “Signaling-specific inhibition of the CB1 receptor for cannabis use disorder: phase 1 and phase 2a randomized trials” (Nature Medicine, 2023).
Several values for one entry are separate records, joined by “and”; a condition that tells them apart may be missing. Equal entries are not always repeated.

Assays:
Assay in all cases: Eurofins binding screen
[1] = target: Dopamine D1 (Homo sapiens, UniProt P21728)
[2] = system: Somatostatin sst; conditions: 10 µM
[3] = target: Endothelin ETA (Homo sapiens, UniProt P25101)
Sequence of Endothelin ETA (P25101 21-427): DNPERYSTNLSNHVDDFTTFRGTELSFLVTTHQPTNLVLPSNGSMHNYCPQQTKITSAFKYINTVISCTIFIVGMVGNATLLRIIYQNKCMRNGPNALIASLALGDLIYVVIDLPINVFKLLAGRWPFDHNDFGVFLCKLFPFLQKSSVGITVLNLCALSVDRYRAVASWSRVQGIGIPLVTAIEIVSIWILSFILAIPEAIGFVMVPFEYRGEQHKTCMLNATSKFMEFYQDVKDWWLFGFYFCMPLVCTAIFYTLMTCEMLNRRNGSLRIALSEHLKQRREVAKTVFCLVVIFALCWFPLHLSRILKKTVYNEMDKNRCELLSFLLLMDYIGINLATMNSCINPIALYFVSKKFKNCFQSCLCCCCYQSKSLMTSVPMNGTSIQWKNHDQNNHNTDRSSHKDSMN

[4] = target: Vasopressin V1a (Homo sapiens, UniProt P37288)
[5] = system: Glutamate PCP; conditions: 10 µM
[6] = target: PAC1 - PACAP (Homo sapiens, UniProt P41586)
[7] = target: Serotonin 5-HT2C (Homo sapiens, UniProt P28335)
[8] = system: Kinase PDGF; conditions: 10 µM
[9] = system: Cl- channel; conditions: 10 µM
[10] = target: Prostanoid EP2 (Homo sapiens, UniProt P43116)
[11] = target: Cholecystokinin CCK2 (CCKB) (Homo sapiens, UniProt P32239)
[12] = target: Melatonin MT1 (ML1A) (Homo sapiens, UniProt P48039)
Sequence of Melatonin MT1 (ML1A) (P48039 whole entry): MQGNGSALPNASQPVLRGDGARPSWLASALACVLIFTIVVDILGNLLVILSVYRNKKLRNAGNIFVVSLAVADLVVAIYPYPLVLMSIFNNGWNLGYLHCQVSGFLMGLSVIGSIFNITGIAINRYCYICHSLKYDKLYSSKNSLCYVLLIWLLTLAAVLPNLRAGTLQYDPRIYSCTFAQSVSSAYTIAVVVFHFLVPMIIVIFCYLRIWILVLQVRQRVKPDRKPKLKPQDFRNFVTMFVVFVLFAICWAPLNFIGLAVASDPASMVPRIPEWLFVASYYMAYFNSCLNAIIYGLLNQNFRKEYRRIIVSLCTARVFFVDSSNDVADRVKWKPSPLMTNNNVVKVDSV

[13] = target: Dopamine D5 (Homo sapiens, UniProt P21918)
[14] = system: GABA; conditions: 10 µM
[15] = target: Adrenergic beta1 (Homo sapiens, UniProt P08588)
Sequence of Adrenergic beta1 (P08588 whole entry): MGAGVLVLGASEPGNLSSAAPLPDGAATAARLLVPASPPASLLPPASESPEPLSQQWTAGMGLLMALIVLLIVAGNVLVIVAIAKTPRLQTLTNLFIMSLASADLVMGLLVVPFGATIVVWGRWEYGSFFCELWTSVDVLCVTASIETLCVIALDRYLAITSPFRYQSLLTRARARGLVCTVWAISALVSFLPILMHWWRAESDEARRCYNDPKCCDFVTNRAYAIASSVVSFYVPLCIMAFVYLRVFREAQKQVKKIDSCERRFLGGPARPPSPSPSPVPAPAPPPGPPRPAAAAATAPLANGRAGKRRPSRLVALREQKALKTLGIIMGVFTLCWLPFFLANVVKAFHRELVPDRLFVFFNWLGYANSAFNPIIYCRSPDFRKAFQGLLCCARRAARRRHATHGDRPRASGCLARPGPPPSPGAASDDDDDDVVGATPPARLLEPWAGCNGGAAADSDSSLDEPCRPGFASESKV

[16] = target: Melanocortin MC4 (Homo sapiens, UniProt P32245)
Sequence of Melanocortin MC4 (P32245 whole entry): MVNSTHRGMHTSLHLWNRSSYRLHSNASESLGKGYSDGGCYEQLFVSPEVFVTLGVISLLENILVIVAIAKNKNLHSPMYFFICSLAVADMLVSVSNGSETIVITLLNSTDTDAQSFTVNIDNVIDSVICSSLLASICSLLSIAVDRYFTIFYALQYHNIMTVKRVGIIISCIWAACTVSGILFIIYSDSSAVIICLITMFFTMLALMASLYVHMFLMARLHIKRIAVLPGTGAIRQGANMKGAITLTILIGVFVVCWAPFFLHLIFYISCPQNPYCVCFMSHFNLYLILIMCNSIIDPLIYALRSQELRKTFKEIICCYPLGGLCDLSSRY

[17] = target: Cannabinoid CB2 (Homo sapiens, UniProt P34972)
[18] = target: Dopamine D2S (Homo sapiens, UniProt P14416)
[19] = target: PPAR gamma (Homo sapiens, UniProt P37231)
[20] = system: Serotonin 5-HT1B; conditions: 10 µM
[21] = target: Neurokinin NK2 (Homo sapiens, UniProt P21452)
[22] = target: Serotonin 5-HT2A (Homo sapiens, UniProt P28223)
[23] = target: Prostanoid EP4 (Homo sapiens, UniProt P35408)
[24] = target: Serotonin 5-HT1A (Homo sapiens, UniProt P08908)
[25] = target: Muscarinic M2 (Homo sapiens, UniProt P08172)
Sequence of Muscarinic M2 (P08172 whole entry): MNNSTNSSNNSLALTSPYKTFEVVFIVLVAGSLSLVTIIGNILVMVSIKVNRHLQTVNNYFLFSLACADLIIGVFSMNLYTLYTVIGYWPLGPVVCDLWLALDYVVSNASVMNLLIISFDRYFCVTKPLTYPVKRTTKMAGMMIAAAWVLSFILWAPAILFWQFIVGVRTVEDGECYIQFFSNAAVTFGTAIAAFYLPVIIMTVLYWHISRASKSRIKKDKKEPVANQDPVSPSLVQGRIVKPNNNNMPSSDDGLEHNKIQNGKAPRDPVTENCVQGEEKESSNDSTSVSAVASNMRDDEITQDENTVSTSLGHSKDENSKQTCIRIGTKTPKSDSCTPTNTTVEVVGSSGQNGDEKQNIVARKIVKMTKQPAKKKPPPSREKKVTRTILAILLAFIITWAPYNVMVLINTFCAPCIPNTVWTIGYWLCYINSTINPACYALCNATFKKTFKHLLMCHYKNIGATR

[26] = system: ER; conditions: 10 µM
[27] = target: Serotonin 5-HT2B (Homo sapiens, UniProt P41595)
[28] = target: Histamine H1 (Homo sapiens, UniProt P35367)
Sequence of Histamine H1 (P35367 whole entry): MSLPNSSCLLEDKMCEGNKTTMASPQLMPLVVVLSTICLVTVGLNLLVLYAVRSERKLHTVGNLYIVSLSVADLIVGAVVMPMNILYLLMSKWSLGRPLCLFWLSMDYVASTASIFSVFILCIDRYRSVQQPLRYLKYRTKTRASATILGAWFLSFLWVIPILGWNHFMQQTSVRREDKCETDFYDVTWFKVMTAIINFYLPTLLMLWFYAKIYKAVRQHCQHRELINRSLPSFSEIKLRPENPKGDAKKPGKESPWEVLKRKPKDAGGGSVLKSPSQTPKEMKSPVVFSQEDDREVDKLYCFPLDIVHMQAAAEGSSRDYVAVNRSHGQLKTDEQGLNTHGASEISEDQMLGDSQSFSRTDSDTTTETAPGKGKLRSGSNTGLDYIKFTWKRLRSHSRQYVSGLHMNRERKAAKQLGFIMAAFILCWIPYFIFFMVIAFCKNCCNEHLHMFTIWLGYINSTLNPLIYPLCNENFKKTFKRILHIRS

[29] = target: Muscarinic M4 (Homo sapiens, UniProt P08173)
[30] = system: BZD (central); conditions: 10 µM
[31] = target: Neurokinin NK3 (Homo sapiens, UniProt P29371)
[32] = target: Opioid mu (MOP) (Homo sapiens, UniProt P35372)
[33] = system: Bombesin BB; conditions: 10 µM
[34] = system: Opioid kappa (KOP); conditions: 10 µM
[35] = target: Neurotensin NTS1 (NT1) (Homo sapiens, UniProt P30989)
[36] = system: Calcium channels Ca2+-L; conditions: 10 µM
[37] = target: Serotonin 5-HT5a (Homo sapiens, UniProt P47898)
[38] = system: sigma; conditions: 10 µM
[39] = target: PR (progesterone receptor) (Homo sapiens, UniProt P06401)
Sequence of PR (progesterone receptor) (P06401 whole entry): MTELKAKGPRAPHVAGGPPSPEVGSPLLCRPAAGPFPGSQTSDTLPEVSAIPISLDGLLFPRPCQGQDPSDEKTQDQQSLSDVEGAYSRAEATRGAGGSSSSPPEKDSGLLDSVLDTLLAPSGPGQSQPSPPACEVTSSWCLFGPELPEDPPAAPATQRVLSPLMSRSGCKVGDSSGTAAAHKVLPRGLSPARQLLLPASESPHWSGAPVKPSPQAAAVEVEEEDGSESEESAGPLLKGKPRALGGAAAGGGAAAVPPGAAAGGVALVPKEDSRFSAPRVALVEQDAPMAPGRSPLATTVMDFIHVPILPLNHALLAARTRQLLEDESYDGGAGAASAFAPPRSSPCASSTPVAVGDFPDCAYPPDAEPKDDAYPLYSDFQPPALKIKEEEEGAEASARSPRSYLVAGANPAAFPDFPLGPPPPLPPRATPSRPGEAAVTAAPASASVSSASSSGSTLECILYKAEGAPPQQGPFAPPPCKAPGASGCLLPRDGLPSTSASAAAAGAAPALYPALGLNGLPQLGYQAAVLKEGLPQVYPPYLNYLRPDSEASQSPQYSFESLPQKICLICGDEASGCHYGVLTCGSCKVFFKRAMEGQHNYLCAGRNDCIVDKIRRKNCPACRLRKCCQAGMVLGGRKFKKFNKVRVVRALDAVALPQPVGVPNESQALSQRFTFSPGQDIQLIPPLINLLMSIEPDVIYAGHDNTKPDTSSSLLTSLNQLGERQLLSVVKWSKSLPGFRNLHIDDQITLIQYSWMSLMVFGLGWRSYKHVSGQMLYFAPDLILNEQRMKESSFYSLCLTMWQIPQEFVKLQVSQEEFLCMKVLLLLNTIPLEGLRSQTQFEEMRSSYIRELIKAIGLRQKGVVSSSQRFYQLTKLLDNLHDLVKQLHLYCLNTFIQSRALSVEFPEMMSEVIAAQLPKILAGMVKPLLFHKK

[40] = target: Serotonin transporter SET (Homo sapiens, UniProt P31645)
[41] = target: Neuropeptide Y Y2 (Homo sapiens, UniProt P49146)
[42] = target: NOP (ORL1) (Homo sapiens, UniProt P41146)
Sequence of NOP (ORL1) (P41146 whole entry): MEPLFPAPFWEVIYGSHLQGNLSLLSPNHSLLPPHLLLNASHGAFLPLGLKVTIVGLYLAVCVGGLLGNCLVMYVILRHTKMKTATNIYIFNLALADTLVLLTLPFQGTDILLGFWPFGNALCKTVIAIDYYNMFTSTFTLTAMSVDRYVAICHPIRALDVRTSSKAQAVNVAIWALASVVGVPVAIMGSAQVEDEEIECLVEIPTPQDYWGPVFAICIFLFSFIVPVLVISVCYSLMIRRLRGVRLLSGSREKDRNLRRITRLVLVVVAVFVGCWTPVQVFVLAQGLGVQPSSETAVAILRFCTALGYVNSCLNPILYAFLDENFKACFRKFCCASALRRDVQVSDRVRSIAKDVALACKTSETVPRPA

[43] = target: Angiotensin-II AT1 (Homo sapiens, UniProt P30556)
[44] = target: Vasoactive intestinal peptide VPAC1 (VIP1) (Homo sapiens, UniProt P32241)
Sequence of Vasoactive intestinal peptide VPAC1 (VIP1) (P32241 31-457): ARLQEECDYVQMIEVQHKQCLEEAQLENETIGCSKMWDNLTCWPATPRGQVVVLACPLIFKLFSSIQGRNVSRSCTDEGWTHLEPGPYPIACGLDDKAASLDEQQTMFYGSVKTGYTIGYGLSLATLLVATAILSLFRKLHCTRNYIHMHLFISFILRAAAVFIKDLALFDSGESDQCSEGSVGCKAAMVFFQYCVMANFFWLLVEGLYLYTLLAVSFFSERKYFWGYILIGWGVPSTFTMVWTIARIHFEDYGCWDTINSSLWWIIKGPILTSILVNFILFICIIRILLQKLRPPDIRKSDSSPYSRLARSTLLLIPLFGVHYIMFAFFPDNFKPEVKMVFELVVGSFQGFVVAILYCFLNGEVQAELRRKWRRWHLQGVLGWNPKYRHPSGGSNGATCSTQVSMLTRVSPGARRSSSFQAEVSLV

[45] = target: Dopamine D3 (Homo sapiens, UniProt P35462)
[46] = target: Cholecystokinin CCK1 (CCKA) (Homo sapiens, UniProt P32238)
[47] = read-out: Percent inhibition of control specific binding

Sequence of Dopamine D1 (P21728 whole entry): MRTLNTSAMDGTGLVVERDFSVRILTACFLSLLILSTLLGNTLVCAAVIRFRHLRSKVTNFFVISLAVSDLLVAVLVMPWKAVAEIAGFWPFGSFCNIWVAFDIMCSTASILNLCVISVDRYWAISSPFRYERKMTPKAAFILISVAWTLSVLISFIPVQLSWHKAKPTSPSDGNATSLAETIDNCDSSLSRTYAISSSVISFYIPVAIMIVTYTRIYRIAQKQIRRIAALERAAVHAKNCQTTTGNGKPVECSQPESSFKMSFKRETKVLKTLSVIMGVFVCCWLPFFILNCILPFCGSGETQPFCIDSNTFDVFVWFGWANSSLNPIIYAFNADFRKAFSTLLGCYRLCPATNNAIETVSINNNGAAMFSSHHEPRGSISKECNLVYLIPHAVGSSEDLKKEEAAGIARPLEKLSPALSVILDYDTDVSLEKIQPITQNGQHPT

## COc1ccc(CO[C@H]2CC[C@@]3(C)C(=CC[C@H]4[C@@H]5CC[C@H](C(C)=O)[C@@]5(C)CC[C@@H]43)C2)cc1 [AEF0117, 3β-(4-methoxybenzyloxy)pregn-5-en-20-one]
[1]; [47]
  inhibition at 10 µM: -12%
[2]
  Percent inhibition of control specific binding: -4%
[3]; [47]
  inhibition at 10 µM: -4%
[4]; [47]
  inhibition at 10 µM: 0%
[5]
  Percent inhibition of control specific binding: 2%
[6]; [47]
  inhibition at 10 µM: 4%
[7]; [47]
  inhibition at 10 µM: 4%
[8]
  Percent inhibition of control specific binding: -8%
[9]
  Percent inhibition of control specific binding: -4%
[10]; [47]
  inhibition at 10 µM: 27%
[11]; [47]
  inhibition at 10 µM: -35%
[12]; [47]
  inhibition at 10 µM: -11%
[13]; [47]
  inhibition at 10 µM: -2%
[14]
  Percent inhibition of control specific binding: 9%
[15]; [47]
  inhibition at 10 µM: 3%
[16]; [47]
  inhibition at 10 µM: -8%
[17]; [47]
  inhibition at 10 µM: -2%
[18]; [47]
  inhibition at 10 µM: -1%
[19]; [47]
  inhibition at 10 µM: 7%
[20]
  Percent inhibition of control specific binding: -15%
[21]; [47]
  inhibition at 10 µM: -28%
[22]; [47]
  inhibition at 10 µM: 2%
[23]; [47]
  inhibition at 10 µM: 10%
[24]; [47]
  inhibition at 10 µM: -11%
[25]; [47]
  inhibition at 10 µM: -3%
[26]
  Percent inhibition of control specific binding: 31%
[27]; [47]
  inhibition at 10 µM: -15%
[28]; [47]
  inhibition at 10 µM: 4%
[29]; [47]
  inhibition at 10 µM: 0%
[30]
  Percent inhibition of control specific binding: 1%
[31]; [47]
  inhibition at 10 µM: -1%
[32]; [47]
  inhibition at 10 µM: -10%
[33]
  Percent inhibition of control specific binding: 12%
[34]
  Percent inhibition of control specific binding: 1%
[35]; [47]
  inhibition at 10 µM: -14%
[36]
  Percent inhibition of control specific binding: -1%
[37]; [47]
  inhibition at 10 µM: 1%
[38]
  Percent inhibition of control specific binding: -4%
[39]; [47]
  inhibition at 10 µM: 29%
[40]; [47]
  inhibition at 10 µM: 8%
[41]; [47]
  inhibition at 10 µM: -22%
[42]; [47]
  inhibition at 10 µM: -7%
[43]; [47]
  inhibition at 10 µM: 7%
[44]; [47]
  inhibition at 10 µM: -4%
[45]; [47]
  inhibition at 10 µM: 2%
[46]; [47]
  inhibition at 10 µM: -19%

## CC(=O)[C@H]1CC[C@H]2[C@@H]3CC=C4C[C@@H](O)CC[C@]4(C)[C@H]3CC[C@]12C [pregnenolone, reference compound]
[1]; 10 µM
  Percent inhibition of control specific binding: -8%
[2]
  Percent inhibition of control specific binding: -8%
[3]; 10 µM
  Percent inhibition of control specific binding: -3%
[4]; 10 µM
  Percent inhibition of control specific binding: 10%
[5]
  Percent inhibition of control specific binding: 5%
[6]; 10 µM
  Percent inhibition of control specific binding: -25%
[7]; 10 µM
  Percent inhibition of control specific binding: -9%
[8]
  Percent inhibition of control specific binding: -15%
[9]
  Percent inhibition of control specific binding: 29%
[10]; 10 µM
  Percent inhibition of control specific binding: 24%
[11]; 10 µM
  Percent inhibition of control specific binding: -38%
[12]; 10 µM
  Percent inhibition of control specific binding: 26%
[13]; 10 µM
  Percent inhibition of control specific binding: -4%
[14]
  Percent inhibition of control specific binding: 10%
[15]; 10 µM
  Percent inhibition of control specific binding: 4%
[16]; 10 µM
  Percent inhibition of control specific binding: -15%
[17]; 10 µM
  Percent inhibition of control specific binding: -19%
[18]; 10 µM
  Percent inhibition of control specific binding: 5%
[19]; 10 µM
  Percent inhibition of control specific binding: 4%
[20]
  Percent inhibition of control specific binding: -28%
[21]; 10 µM
  Percent inhibition of control specific binding: -1%
[22]; 10 µM
  Percent inhibition of control specific binding: -1%
[23]; 10 µM
  Percent inhibition of control specific binding: 21%
[24]; 10 µM
  Percent inhibition of control specific binding: 12%
[25]; 10 µM
  Percent inhibition of control specific binding: -4%
[26]
  Percent inhibition of control specific binding: 26%
[27]; 10 µM
  Percent inhibition of control specific binding: -38%
[28]; 10 µM
  Percent inhibition of control specific binding: 0%
[29]; 10 µM
  Percent inhibition of control specific binding: -4%
[30]
  Percent inhibition of control specific binding: -43%
[31]; 10 µM
  Percent inhibition of control specific binding: 11%
[32]; 10 µM
  Percent inhibition of control specific binding: -5%
[33]
  Percent inhibition of control specific binding: -18%
[34]
  Percent inhibition of control specific binding: 38%
[35]; 10 µM
  Percent inhibition of control specific binding: -19%
[36]
  Percent inhibition of control specific binding: -19%
[37]; 10 µM
  Percent inhibition of control specific binding: 11%
[38]
  Percent inhibition of control specific binding: 26%
[39]; 10 µM
  Percent inhibition of control specific binding: > 80% and 87%
[40]; 10 µM
  Percent inhibition of control specific binding: 1%
[41]; 10 µM
  Percent inhibition of control specific binding: -9%
[42]; 10 µM
  Percent inhibition of control specific binding: 2%
[43]; 10 µM
  Percent inhibition of control specific binding: -28%
[44]; 10 µM
  Percent inhibition of control specific binding: -10%
[45]; 10 µM
  Percent inhibition of control specific binding: 11%
[46]; 10 µM
  Percent inhibition of control specific binding: -30%
